Test results as given in EP0714604A1, “A composition having insecticidal and acaricidal properties” (MITSUI TOATSU CHEMICALS, INCORPORATED, priority 1994, dated 1996).

What was measured:
Assay type in all cases: in vivo
green peach aphid = assay: Test 7: effect on the green peach aphid living on eggplants (population density); settings: Compound No.1 25 ppm, before treatment = 100
Procedure: After leaves naturally infested with green peach aphids were marked, eggplants were sprayed with a diluted fluid of 10% Anniverse Emulsion (Compound No.1), 0.6% Avermectin Emulsion or a mixture thereof to such an extent that the fluid dripped from their leaves. The number of green peach aphids living on the marked leaves was counted 2, 7, 14, 21 and 28 days after the treatment, and the corrected population density index was calculated according to the equation given below. Corrected population density index =((Number of insects after treatment in treated division)/(Number of insects before treatment in treated division))/((Number of insects after treatment in untreated division)/(Number of insects before treatment in untreated division))x 100 [formula]

[1] = system: sensitive strain of the Kanzawa spider mite; assay: Test 1: effect on a sensitive strain of the Kanzawa spider mite (leaf section spray, LC50); settings: eggs on kidney bean leaf sections sprayed, 25°C, eleven days after the treatment
Procedure: (§1) About 2 cm square sections of kidney bean leaves were placed on wetted absorbent cotton. Then, 7 female adults of the Kanzawa spider mite were inoculated on each leaf section and allowed to deposit eggs. After 24 hours, the adult mites were removed, 4 ml each of various dilutions of 10% Anniverse Emulsion (Compound No.1), 0.6% Avermectin Emulsion or a mixture thereof were sprayed by means of a tower sprayer, and the leaf sections were maintained in a thermostatic chamber kept at 25°C. Eleven days after the treatment, the numbers of surviving mites, dead mites, unhatched eggs and escaping mites were examined. Thus, the survival rates at various concentrations were calculated and the LC₅₀ value (in ppm) was determined therefrom.
In order to evaluate the synergistic effect of the compound of the general formula (1) and the macrolide compound, the combined toxicity index was calculated from the LC₅₀ values of the respective compounds according to the equation of Y.P. Sun et al. (J. Econ. Ent., 53(5), 887, 1960).
The equation of Y.P. Sun et al. for calculating the combined toxicity index is more fully explained below. […]

[2] = system: resistant strain of the Kanzawa spider mite; assay: Test 3: effect on a resistant strain of the Kanzawa spider mite, Milbenock Emulsion as macrolide (LC50); settings: 1% Milbenock Emulsion as macrolide, eleven days after the treatment
Procedure: A test was carried out in the same manner as in Test 1, except that, in place of 0.6% Avermectin Emulsion, 1% Milbenock Emulsion was used as the macrolide compound.

[3] = system: resistant strain of the citrus red mite; assay: Test 4: effect on a resistant strain of the citrus red mite (leaf section spray, LC50); settings: eggs on mandarin tree leaf sections sprayed, 25°C, eleven days after the treatment
Procedure: as §1, with “mandarin tree” for “kidney bean”, “citrus red” for “Kanzawa spider”

[4] = system: resistant strain of the greenhouse whitefly; assay: Test 6: effect on a resistant strain of the greenhouse whitefly (eggs on leaf sections, LC50); settings: one-day-old eggs on kidney bean leaf sections sprayed, 25°C, twelve days after the treatment
Procedure: About 2 cm square sections of kidney bean leaves on which one-day-old eggs of the greenhouse whitefly had been deposited were placed on wetted absorbent cotton, sprayed with 4 ml each of various dilutions of 10% Anniverse Emulsion (Compound No.1), 0.6% Avermectin Emulsion or a mixture thereof by means of a tower sprayer, and maintained in a thermostatic chamber kept at 25°C. Twelve days after the treatment, the numbers of surviving insects, dead insects, unhatched eggs and escaping insects were examined. Thus, the survival rates at various concentrations were calculated and the LC₅₀ value (in ppm) was determined therefrom.

[5] = system: resistant strain of the Kanzawa spider mite; assay: Test 2: effect on a resistant strain of the Kanzawa spider mite (leaf section spray, LC50); settings: eggs on kidney bean leaf sections sprayed, 25°C, eleven days after the treatment
Procedure: as §1, with “No.1), 20% Trebon Emulsion (Compound No.2),” for “No.1),”
(§2) In order to evaluate the synergistic effect of each compound of the general formula (1) and the macrolide compound, the combined toxicity index was calculated from the LC₅₀ values of the respective compounds in the same manner as in Test 1.

[6] = system: second-instar larvae of the diamond-back moth; assay: Test 8: effect on the diamondback moth (residual activity on sprayed potted cabbages); settings: dead larvae 2 days after feeding
Text: Potted cabbages were sprayed with a diluted fluid of an emulsion of a compound of the general formula (1) [i.e., 10% Anniverse Emulsion (Compound No.1), 20% Trebon Emulsion (Compound No.2), an emulsion of Compound No.3, an emulsion of Compound No.4, or Shironen Emulsion (Compound No.5)], 0.6% Avermectin Emulsion or a mixture thereof to such an extent that the fluid dripped from their leaves. Subsequently, cabbage leaves were sampled at predetermined intervals and fed to second-instar larvae of the diamond-back moth. Then, the number of dead larvae was examined after 2 days from the feeding.

Kanzawa spider mite = assay: Test 5: effect on the Kanzawa spider mite living on potted kidney bean plants (mite counts); settings: Compound No.1 25 ppm, 51 before treatment
Text: Potted kidney bean plants in the first true leaf stage were inoculated with female adults of the Kanzawa spider mite and allowed to stand in a greenhouse for about a week. After leaves infested with Kanzawa spider mites were marked, the kidney bean plants were sprayed with a diluted fluid of 10% Anniverse Emulsion (Compound No.1), a macrolide compound (i.e., 0.6% Avermectin Emulsion or 1% Milbenock Emulsion) or a mixture thereof to such an extent that the fluid dripped from their leaves. The number of Kanzawa spider mites living on the marked leaves was counted 2, 7, 12, 16 and 27 days after the treatment.

[7] = system: resistant strain (selected by Compound No.1) of the Kanzawa spider mite; assay: Test 9: effect on a resistant strain (selected by Compound No.1) of the Kanzawa spider mite (LC50); settings: eggs on kidney bean leaf sections sprayed, 25°C, eight days after the treatment
Procedure: as §1, with “removed,” for “removed, 4 ml each of”, “an emulsion of a compound of the general formula (1) [i.e., 20% Trebon” for “10% Anniverse”, “No.2), an emulsion of Compound No.3, an emulsion of Compound No.4, or Shironen Emulsion (Compound No.5)], 1% Milbenock” for “No.1), 0.6% Avermectin”, “Eight” for “Eleven”
as §2

[8] = compound of formula (1) alone 50 ppm, leaves sampled 2 days after treatment
[9] = compound of formula (1) alone 50 ppm, leaves sampled 7 days after treatment
[10] = compound of formula (1) alone 50 ppm, leaves sampled 14 days after treatment
[11] = compound of formula (1) alone 50 ppm, leaves sampled 21 days after treatment
[12] = compound of formula (1) alone 50 ppm, leaves sampled 28 days after treatment
[13] = compound of formula (1) alone 50 ppm, leaves sampled 35 days after treatment

| SMILES | LC₅₀ value [5] [ppm] | Death rate [6, 8] [%] | Death rate [6, 9] [%] | Death rate [6, 10] [%] | Death rate [6, 11] [%] | Death rate [6, 12] [%] | Death rate [6, 13] [%] | LC₅₀ value [7] [ppm] | other results |
| --- | --- | --- | --- | --- | --- | --- | --- | --- | --- |
| CC(C)(COCc1cccc(Oc2ccccc2)c1)c1ccc(OC(F)(F)Br)cc1 [Compound No.1] | 11.5 | – | – | – | – | – | – | – | Corrected population density index (green peach aphid; 2 days after treatment): 0; Corrected population density index (green peach aphid; 7 days after treatment): 0.3; Corrected population density index (green peach aphid; 14 days after treatment): 2.5; Corrected population density index (green peach aphid; 21 days after treatment): 42.5; Corrected population density index (green peach aphid; 28 days after treatment): 96.5; LC₅₀ value [1]: 1.13 ppm; LC₅₀ value [2]: 11.5 ppm; LC₅₀ value [3]: 2000 ppm; LC₅₀ value [4]: 630 ppm; Death rate ([6]; compound of formula (1) alone 25 ppm, leaves sampled 2 days after treatment): 90%; Death rate ([6]; compound of formula (1) alone 25 ppm, leaves sampled 7 days after treatment): 10%; Death rate ([6]; compound of formula (1) alone 25 ppm, leaves sampled 14 days after treatment): 0%; Death rate ([6]; compound of formula (1) alone 25 ppm, leaves sampled 21 days after treatment): 0%; Number of living mites (Kanzawa spider mite; 2 days after treatment): 0; Number of living mites (Kanzawa spider mite; 7 days after treatment): 0; Number of living mites (Kanzawa spider mite; 12 days after treatment): 0; Number of living mites (Kanzawa spider mite; 16 days after treatment): 27; Number of living mites (Kanzawa spider mite; 27 days after treatment): 102 |
| CCOc1ccc([Si](C)(C)CCCc2ccc(F)c(Oc3ccccc3)c2)cc1 [Compound No.5] | – | 95 | 73 | 50 | 15 | 0 | 0 | 1150 | – |
| CCOc1ccc(C(C)(C)COCc2cccc(Oc3ccccc3)c2)cc1 [Compound No.2] | 162 | 38 | 15 | 25 | 11 | – | – | 375 | – |
| CCOc1ccc(C(C)(C)CCCc2ccc(F)c(Oc3ccccc3)c2)cc1 [Compound No.4] | – | 94 | 65 | 60 | 10 | 0 | 0 | 94 | – |
| CCOc1ccc(C(C)(C)CCCc2cccc(Oc3ccccc3)c2)cc1 [Compound No.3] | – | 70 | 45 | 15 | 40 | 35 | 5 | 519 | – |
